{"source": "patent US10869871B2", "about": "“Compositions and methods of modulating short-chain dehydrogenase activity” (CASE WESTERN RESERVE UNIVERSITY, priority 2013, dated 2020)", "key": {"15-PGDH protein": {"test_system": "15-PGDH protein", "test": "Western blot of 15-PGDH protein levels in treated cell lines", "format": "cell-based", "conditions": "[…] compound for 48 hours"}, "bone marrow [1]": {"test_system": "bone marrow", "test": "Bone marrow analysis of C57BL/6J mice treated IP", "format": "in vivo, mouse", "conditions": "IP 5 mg/kg or 20 mg/kg", "source_text": "FIGS. […] Experimental conditions are noted on the figure."}, "bone marrow [2]": {"test_system": "bone marrow", "test": "Competitive bone marrow transplant chimerism (CD45.2 donor treated)", "format": "in vivo, mouse", "conditions": "donor 5 mg/kg IP daily for 3 doses; weeks 12 and 16", "experimental": "On day 3 mice were sacrificed, marrow flushed and mixed at a 1:1 ratio with vehicle treated CD45.1 marrow. 2 million whole BM cells were injected into the tail vein of lethally irradiated CD45.1 mice and percent chimerism measured via flow cytometry at weeks 8, 12, 16."}, "[3]": {"test": "Survival after acetaminophen (Tylenol) LD50 dose 600 mg/kg IP;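 note: controls were mice given only vehicle, dosed once or twice per day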", "format": "in vivo, mouse", "conditions": "for number of mice surviving: first dose immediately after Tylenol injection"}, "[4]": {"test": "Survival of lethally irradiated mice after bone marrow transplant (30 days)", "format": "in vivo, mouse", "conditions": "5 mg/kg IP bid", "source_text": "A matched control cohort received injections with vehicle only. On day one mice received an infusion of donor marrow at doses of 100,000 cells; 200,000 cells; or 500,000 cells. […] Among mice receiving 200,000 donor cells, all control mice were dead by day 12."}}}
{"smiles": "CCCC[S+]([O-])c1sc2nc(-c3cccs3)cc(-c3ccccc3)c2c1N", "note": "(stereo not shown) [SW033291, 2-(butylsulfinyl)-4-phenyl-6-(thiophen-2-yl)thieno[2,3-b]pyridin-3-amine]", "values": [{"measurement": "levels of 15-PGDH protein (western blot)", "setting": "15-PGDH protein", "result": "increase levels of 15-PGDH protein"}, {"measurement": "percent of Sca1+/c-Kit+ lineage negative (SKL) cells", "setting": "bone marrow [1]", "result": "unchanged"}, {"measurement": "percent blood chimerism of CD45.2 marked cells", "setting": "bone marrow [2]", "result": "significantly increased"}, {"measurement": "survival versus control", "setting": "[3]; 5 mg/kg IP beginning immediately following acetaminophen, once or twice daily, through 120 hours", "result": "No difference"}, {"measurement": "Survival (number of mice)", "setting": "[3]; 5 mg/kg IP bid from 3 hours prior to acetaminophen, 6 doses, cohort of 6, 0 hrs", "result": 6}, {"measurement": "Survival (number of mice)", "setting": "[3]; 5 mg/kg IP bid from 3 hours prior to acetaminophen, 6 doses, cohort of 6, 16 hr", "result": 6}, {"measurement": "Survival (number of mice)", "setting": "[3]; 5 mg/kg IP bid from 3 hours prior to acetaminophen, 6 doses, cohort of 6, 24 hrs", "result": 5}, {"measurement": "Survival (number of mice)", "setting": "[3]; 5 mg/kg IP bid from 3 hours prior to acetaminophen, 6 doses, cohort of 6, 48 hrs", "result": 3}, {"measurement": "Survival (number of mice)", "setting": "[3]; 5 mg/kg IP bid from 3 hours prior to acetaminophen, 6 doses, cohort of 6, 64 hrs", "result": 3}, {"measurement": "Survival (number of mice)", "setting": "[3]; 5 mg/kg IP bid from 3 hours prior to acetaminophen, 6 doses, cohort of 6, 72 hrs", "result": 3}, {"measurement": "Survival (number of mice)", "setting": "[3]; 5 mg/kg IP bid from 3 hours prior to acetaminophen, 6 doses, cohort of 6, 88 hr", "result": 3}, {"measurement": "Survival (number of mice)", "setting": "[3]; 5 mg/kg IP bid from 3 hours prior to acetaminophen, 6 doses, cohort of 6, 96 hr", "result": 3}, {"measurement": "Survival (number of mice)", "setting": "[3]; 5 mg/kg IP bid from 3 hours prior to acetaminophen, 6 doses, cohort of 6, 112 hr", "result": 3}, {"measurement": "Survival (number of mice)", "setting": "[3]; 5 mg/kg IP bid from 3 hours prior to acetaminophen, 6 doses, cohort of 6, 120 hr", "result": 3}, {"measurement": "Survival (number of mice)", "setting": "[3]; 5 mg/kg IP bid from 48 hours prior to acetaminophen, 9 doses, cohort of 12, 0 hrs", "result": 12}, {"measurement": "Survival (number of mice)", "setting": "[3]; 5 mg/kg IP bid from 48 hours prior to acetaminophen, 9 doses, cohort of 12, 16 hr", "result": 12}, {"measurement": "Survival (number of mice)", "setting": "[3]; 5 mg/kg IP bid from 48 hours prior to acetaminophen, 9 doses, cohort of 12, 24 hrs", "result": 12}, {"measurement": "Survival (number of mice)", "setting": "[3]; 5 mg/kg IP bid from 48 hours prior to acetaminophen, 9 doses, cohort of 12, 40 hrs", "result": 11}, {"measurement": "Survival (number of mice)", "setting": "[3]; 5 mg/kg IP bid from 48 hours prior to acetaminophen, 9 doses, cohort of 12, 48 hrs", "result": 10}, {"measurement": "Survival (number of mice)", "setting": "[3]; 5 mg/kg IP bid from 48 hours prior to acetaminophen, 9 doses, cohort of 12, 64 hrs", "result": 10}, {"measurement": "Survival (number of mice)", "setting": "[3]; 5 mg/kg IP bid from 48 hours prior to acetaminophen, 9 doses, cohort of 12, 72 hrs", "result": 10}, {"measurement": "Survival (number of mice)", "setting": "[3]; 5 mg/kg IP bid from 48 hours prior to acetaminophen, 9 doses, cohort of 12, 88 hr", "result": 10}, {"measurement": "Survival (number of mice)", "setting": "[3]; 5 mg/kg IP bid from 48 hours prior to acetaminophen, 9 doses, cohort of 12, 96 hr", "result": 10}, {"measurement": "Survival (number of mice)", "setting": "[3]; 5 mg/kg IP bid from 48 hours prior to acetaminophen, 9 doses, cohort of 12, 112 hr", "result": 10}, {"measurement": "Survival (number of mice)", "setting": "[3]; 5 mg/kg IP bid from 48 hours prior to acetaminophen, 9 doses, cohort of 12, 120 hr", "result": 10}, {"measurement": "number of mice surviving", "setting": "[3]; 1 dose daily, cohort of 6, 0 hrs", "result": 6}, {"measurement": "number of mice surviving", "setting": "[3]; 1 dose daily, cohort of 6, 16 hr", "result": 6}, {"measurement": "number of mice surviving", "setting": "[3]; 1 dose daily, cohort of 6, 24 hrs", "result": 6}, {"measurement": "number of mice surviving", "setting": "[3]; 2 dose daily, cohort of 6, 0 hrs", "result": 6}, {"measurement": "number of mice surviving", "setting": "[3]; 2 dose daily, cohort of 6, 16 hr", "result": 6}, {"measurement": "number of mice surviving", "setting": "[3]; 2 dose daily, cohort of 6, 24 hrs", "result": 6}, {"measurement": "number of mice surviving", "setting": "[3]; 2 dose daily, cohort of 6, 48 hrs", "result": 3}, {"measurement": "number of mice surviving", "setting": "[3]; 2 dose daily, cohort of 6, 64 hrs", "result": 3}, {"measurement": "number of mice surviving", "setting": "[3]; 2 dose daily, cohort of 6, 72 hrs", "result": 3}, {"measurement": "number of mice surviving", "setting": "[3]; 2 dose daily, cohort of 6, 88 hr", "result": 3}, {"measurement": "number of mice surviving", "setting": "[3]; 2 dose daily, cohort of 6, 96 hr", "result": 3}, {"measurement": "number of mice surviving", "setting": "[3]; 2 dose daily, cohort of 6, 112 hr", "result": 3}, {"measurement": "number of mice surviving", "setting": "[3]; 2 dose daily, cohort of 6, 120 hr", "result": 3}, {"measurement": "median survival versus control", "setting": "[4]; 100,000 donor cells", "result": "approximate doubling of median survival"}, {"measurement": "survival at 30 days", "setting": "[4]; 500,000 donor cells", "result": "all survived"}]}
